Patent publication US20230256094A1, “CANCER RADIOSENSITIZATION BY IN SITU FORMATION OF GOLD NANOPARTICLES AND/OR GOLD NANOCLUSTERS” (BOARD OF REGENTS, THE UNIVERSITY OF TEXAS SYSTEM, priority 2020, published 2023)
Entries after “also recorded” stand apart in the source; their conditions may differ.

Key:
PANC1 cells [1] = assay: Clonogenic survival assay of radiosensitization; type: cell-based, human; conditions: 0.20 mM, 24 hrs
Description: FIG. 20 presents evidence of radiosensitization resulting from 24 hour 0.20 mM Au^3+ treatments (lower plot) compared against non-treated (upper plot) determined via clonogenic survival assay and in full cell media to PANC1 pancreatic cancer.
2.5. Evaluate radiosensitization efficacy and radiosensitization mechanisms for in situ synthetized GNCs. Based on the studies described in Sections 2.3-2.4, we selected the following conditions for radiosensitization studies in cell culture: 24 hr media conditioning by cells, 10% FBS (v/v) within, and 0.20 mM Au^3+ for 24 hrs.
A standard clonogenic assay was used to evaluate radiosensitization efficacy of intracellular synthetized GNC in PANC1 cells (FIG. 20). […] Dose enhancement factor at 10% surviving fraction (DEF10%) was calculated at 1.317 indicative of a strong radiosensitization in Au^3+ treated cells.

PANC1 pancreatic cancer [2] = assay: JC-1 mitochondrial depolarization assay (cell viability); type: cell-based; conditions: 0.20-1.50 mM, 24 hour
Description: FIG. 19 reports cell viability as a function of 24 hour Au^3+ treatments at varied concentrations determined via JC-1 mitochondrial depolarization assay and in full cell media to PANC1 pancreatic cancer.
(§1) The JC-1 assay measures the charge potential of the mitochondria of cells through the fluorometric ratio of the JC-1 dye (ThermoFisher Scientific, Waltham, Mass.). JC-1 is a cationic carbocyanine dye that accumulates in mitochondria. The dye exists as a monomer at low concentrations and yields green fluorescence, similar to fluorescein. […] These characteristics make JC-1 a sensitive marker for mitochondrial membrane potential. In other words, mitochondrial depolarization is indicated by a decrease in the red/green fluorescence intensity ratio. Mitochondrial depolarization is an indicator of reduced cell viability.
2.4. Characterize cytotoxicity of gold atom treatment. An MTS viability assay was used with 0-2.0 mM Au^3+ dose range. […] MTS assay was not usable at concentrations >0.75 mM Au^3+ due to intracellular formation of larger GNPs and their absorbance interfering with the MTS results. Therefore, at higher Au^3+ we switched to AO/PI live-dead staining (FIG. 15) and JC-1 mitochondrial depolarization assays (FIG. 19). JC-1 assay indicated cell viability ˜80% for concentrations between 0.20-1.50 mM Au^3+.

PANC1 cells [3] = assay: Optimization of conditions for intracellular synthesis of fluorescent GNCs; type: cell-based, human
Description: 2.3. Optimization of conditions for intracellular synthesis of GNCs. We determined optimal conditions for intracellular synthesis of fluorescent GNCs by PANC1 cells through variations in (1) how long cells condition media before addition of Au^3+ ions (FIG. 11), (2) the concentration of FBS within the media (FIG. 10), (3) concentration of added Au^3+ ions (FIGS. 13), and (4) incubation time (FIG. 12). We used the following standard conditions: 24 hr cell conditioning time, 10% FBS, 1.00 mM Au^3+, and 24 hr Au^3+ treatment duration. […] We observed significant formation of GNCs at Au^3+ concentrations between 0.20-0.75 mM, with fluorescence reduced at concentrations greater than 1.00 mM, possibly, due to formation of larger non-fluorescent gold nanoparticles (GNPs). We observed fluorescence as early as 30 minutes after addition of gold atoms with a significant increase up to 4 hours.

PANC1 pancreatic cancer [4] = assay: NADP(H) assay after irradiation; type: cell-based, human; conditions: 24 hr post-irradiation
Description: (§2) FIG. 23 reports on a mechanistic study of radiosensitization quantifying total NADP through NADP assay measured at 0, 1, and 24 hours, resulting from 24 hour, 0.20 mM Au^3+ treatments (right four bars) compared against non-treated (left four bars) combined with either 0 Gy or 8 Gy x-ray irradiation. Treatments are in full cell media to PANC1 pancreatic cancer.
as §2, with “24” for “23”, “the ratio of NADP^+/NADPH” for “total NADP”, “(right)” for “(right four bars)”, “(left)” for “(left four bars)”
(§3) Further, we characterized the mechanisms of radiosensitization through (i) quantification of double stranded DNA breaks via y-H2AX Foci (FIG. 21), (ii) mitochondrial polarization via JC-1 assay (FIG. 22), (iii) NADP total (FIG. 23) and NADP:NADPH ratio (FIG. 24) via NADP(H) assay, and (iv) peroxidation production via TBARS assay (FIG. 25).

PANC1 pancreatic cancer [5] = assay: MTT assay of cell viability after x-ray irradiation; type: cell-based, human; conditions: 24 hours after irradiation, all radiation dosages greater than 0 Gy, 0.20 mM
Description: FIG. 26 presents evidence of radiosensitization, quantifying the cell viability resulting from X-ray damage through MTT assay measured 24 and 96 hours after x-ray irradiation, resulting from 24 hour, 0.20 mM Au^3+ treatments (right bar in each dosage pair) compared against non-treated (left bar in each dosage pair) combined with either 0 Gy or 8 Gy x-ray irradiation. Treatments are in full cell media to PANC1 pancreatic cancer.

PANC1 pancreatic cancer [6] = assay: JC-1 assay of mitochondrial polarization after irradiation; type: cell-based, human; conditions: 24 hr post-irradiation, 8 Gy
Description: as §2, with “22” for “23”, “mitochondrial depolarization” for “total NADP”, “JC-1” for “NADP”, “(lower three)” for “(right four bars)”, “(upper three)” for “(left four bars)”
as §1, §3

[7] = tested on: PANC1 pancreatic cancer cells; assay: Longitudinal live cell confocal fluorescence imaging of the intracellular distribution of GNCs; type: cell-based, human; conditions: 0.20 mM, 20 hr time period
Description: 2.1. Intracellular distribution and time dependence of gold nanocluster (GNC) in situ formation. […] Then, we used longitudinal live cell confocal fluorescence imaging to observe time dependence of the intracellular distribution of GNCs formed through biomineralization of Au^3+.

[Au+3].[Cl-].[Cl-].[Cl-].[Cl-].[H+] [Au^3+, chloroauric acid]
Dose enhancement factor at 10% surviving fraction (DEF10%) (PANC1 cells [1]): 1.317 | average surviving fraction (PANC1 cells [1]; 2 Gy): 47.3% | average surviving fraction (PANC1 cells [1]; 4 Gy): 7.3% | average surviving fraction (PANC1 cells [1]; 6 Gy): 2.2% | cell viability (JC-1) (PANC1 pancreatic cancer [2]): ~80% | earliest time at which fluorescence was observed after addition (PANC1 cells [3]; 1.00 mM, 10% FBS): 30 min | time up to which fluorescence increased significantly (PANC1 cells [3]; 1.00 mM, 10% FBS): up to 4 hours | Au^3+ concentrations at which fluorescence is reduced (PANC1 cells [3]; 24 hr treatment, 10% FBS): greater than 1.00 mM | Au^3+ concentrations with significant formation of GNCs (PANC1 cells [3]; 24 hr treatment, 10% FBS): 0.20 to 0.75 mM | change of GNC synthesis with duration of media conditioning or FBS concentration (PANC1 cells [3]; media conditioning up to 72-hr, FBS 0-10% (v/v)): No significant changes | NADP total lower than for non-treated cells (PANC1 pancreatic cancer [4]): ~43% | NADP:NADPH ratio larger than for non-treated cells (PANC1 pancreatic cancer [4]): 181% | cell viability vs untreated controls (MTT) (PANC1 pancreatic cancer [5]): significantly lower cell viability | recovery of mitochondrial depolarization (PANC1 pancreatic cancer [6]): no recovery in the mitochondrial depolarization | subcellular region of greatest GNC formation [7]: nucleolus had the highest rate of GNC formation; also recorded: greatest in the nucleolus
